This is an account of results in US20120213714A1, “Method and compositions as an adjunct for the prevention and treatment of periodontal disease” (priority 2011, published 2012).

Values after ≈ are worked out from the molar mass of the structure shown.

This test relates to Porphyromonas gingivalis. Nature of the test: Porphyromonas gingivalis overnight culture, colony count on blood agar vs control. The test is classed as cell-based. Here is the method:
After the overnight culture, the medium was diluted 1:10000 times, 5 μl of the diluted culture was applied to blood agar plate and cultured overnight. Calculated the number of colonies on the plates and compared with the control group to obtain the percentage of inhibition.

Regarding `CCCCC/C=C\C/C=C\C/C=C\CCCCC(=O)O` [omega-6 fatty acids (GLA), γ-linolenic acid], the IC50 (Porphyromonas gingivalis, overnight culture at 37° C, colonies counted vs control, read-out: IC50 / final concentration inhibiting 50% of Porphyromonas gingivalis growth) was ~5 µg/mL (≈ 18 µM). The “inhibition of growth of Porphyromonas gingivalis” value (final concentration of 1 μg/ml) is on record as “significantly inhibit the growth”.
